The molecules below were run against T1, intestinal α-glucosidase (assay: crude enzyme inhibition, p-nitrophenyl-α-D-glucopyranoside hydrolysis at […] nm).
T1 construct: crude rat intestinal enzyme
Assay type: biochemical, Rattus norvegicus

| Intestinal α-Glucosidase % Inhibition (IC50) [µg/mL] | Compound |
| --- | --- |
| 2.07 ± 0.01 | COC(=O)c1c(C)cc(OC(=O)c2c(C)cc(O)c(C=O)c2O)c(C)c1O [compound 13, atranorin] |
| 1.99 ± 0.03 | COc1c(C)c(O)cc(C)c1C(=O)O [compound 18, iso-rhizonic acid] |
| 1.41 ± 0.01 | CCCCCc1cc(O)cc2c1Oc1cc(O)cc(C(=O)CCCC)c1C(=O)O2 [compound 12, norlobaridone] |
| 1.62 ± 0.07 | Cc1cc(O)c(C=O)c2c1C(=O)Oc1c(CO)c(O)c3c(c1O2)C(O)OC3=O (centres unmarked) [compound 11, salazinic acid] |
| 2.58 ± 0.85 | C[C@H]1O[C@H](O[C@H]2[C@H](O)[C@@H](O)[C@@H](O[C@H]3[C@H](O)[C@@H](O)C(O)O[C@@H]3CO)O[C@@H]2CO)[C@H](O)[C@@H](O)[C@@H]1N[C@H]1C=C(CO)[C@@H](O)[C@H](O)[C@H]1O (some centres unmarked) [acarbose, reference compound] |

Source: publication PMC10708527, “Salazinic Acid and Norlobaridone from the Lichen Hypotrachyna cirrhata: Antioxidant Activity, α-Glucosidase Inhibitory and Molecular Docking Studies” (Molecules, 2023)
